In patent US9345694B2, “Compounds for enhancing arginase activity and methods of using same” (Cornell Research Foundation, Inc., priority 2006, dated 2016):

Key:
[1] = tested on: myelin-associated glycoprotein (MAG) inhibition in P7 rat cerebellar neurons; assay: MAG inhibition analysis, neurite outgrowth of P7 rat cerebellar neurons on MAG-overexpressing CHO cells, post-treatment; type: cell-based; settings: 10 nM and 40 nM, 24 h in culture, CHO-MAG vs control CHO cells
Method: Compounds were tested for their ability to overcome myelin-associated glycoprotein (MAG) inhibition in P7 rat cerebellar neurons.
In experiments performed in the Roman Giger laboratory at the University of Rochester School of Medicine and Dentistry, twelve compounds were tested, using the materials and methods described by Venkatesh, et al., J Neurosci.
The twelve compounds were tested in two different dilutions (10 nM and 40 nM final concentration).
MAG-overexpressing CHO cells and control CHO feeder layers were used in the assay. All experiments were done with Percoll purified P7 rat cerebellar neurons. The twelve compounds were tested in a “post-treatment” manner. Post-treatment refers to administering the compounds after the neurons were plated.
After 24 h in culture, cells were fixed and stained with TuJ1 (cells with neurites longer than 1 cell body diameter were quantified). Untreated cells (first column of FIGS. 11 and 12) and DMSO only (second column of FIGS. 11 and 12) were used as a negative controls. RHO-kinase inhibitor Y27632 (15 microM) (third column of FIGS. 11 and 12) was used as a positive control. All experiments have been repeated 3-5 times independently.
In FIGS. 11 and 12, there are two bars for each compound tested.

Arginase I protein [2] = settings: Cai et al., cited from earlier work
[3] = tested on: myelin-associated glycoprotein (MAG) inhibition in p5 rat cerebellar neurons; assay: MAG inhibition analysis, neurite outgrowth of p5 rat cerebellar neurons on MAG-expressing CHO cells, direct addition or priming; type: cell-based; settings: priming overnight at 20 μM, then plated on MAG-expressing CHO cells
Method: Compounds were tested for their ability to overcome myelin-associated glycoprotein (MAG) inhibition in primary rat neurons. […] In a first experiment, the twelve compounds were tested for their ability to overcome inhibition by MAG in culture. The compounds were tested for their ability to inhibit neurite outgrowth of MAG-expressing CHO cells. Cerebellar neurons were cultured on MAG-expressing CHO cells and neurite length is compared to neurons growing on control CHO cells, not expressing MAG. The cells were assessed for their ability to overcome MAG inhibition when added directly to the cultures at a range of concentrations from 2-20 μM. Neurons were plated at a density of about 10,000 neurons per well of an 8-well culture dish containing a monolayer of either MAG-expressing or control CHO cells. The co-cultures were, incubated for 16-18 h and then immunostained for βIII tubulin. Neurite outgrowth was quantified as previously described (Mukhopadhyay et al., 1994). […] At least 400 neurons were measured in each assay and the experiment was carried out at least twice.

Arginase I protein [4] = assay: Western blotting and immunostaining for Arginase I protein in treated neurons; type: cell-based, rat; settings: neurons treated at 20 μM for 18 hours
Method: FIG. 15. Western blot and immunostaining results for arginase I protein. Neurons were treated with, daidzein (20 μM), methoxyvone (5 μM) or lanzoprazole (20 μM) for 18 hours and were then lysed and subjected to gel electrophoresis, followed by western blotting and immunostaining for Arginase I protein. As a positive control, neurons were treated with 1 mM db cAMP.
In a second experiment, the twelve compounds were tested for their ability to upregulate arginase I protein. Neurons were treated with, daidzein (20 μM), methoxyvone (5 μM) or lanzoprazole (20 μM) for 18 hours and were then lysed and subjected to gel electrophoresis, followed by western blotting and immunostaining for Arginase I protein. As a positive control, neurons were treated with 1 mM db cAMP (FIG. 15). Db-cAMP was previously shown to increased Arginase I protein 3-fold as described by Cai, et a., Neuron. 2002 Aug. 15; 35(4):711-9.

| SMILES | effect on releasing MAG inhibition [1] | further results |
| --- | --- | --- |
| COc1ccc(C[C@H]2NC[C@H](O)[C@H]2OC(C)=O)cc1 [Anisomycin, reference compound] | most promising |  |
| CC(=O)Oc1cc(OC(C)=O)c2c(c1)O[C@H](c1ccc(OC(C)=O)c(OC(C)=O)c1)[C@H](OC(C)=O)C2 [epicatechin pentaacetate, Epicatechin pentaacetate] | no effect |  |
| CC(=O)Nc1ccc(O)cc1 [Acetaminophen, reference compound] | no effect |  |
| O=C(/C=C/c1ccc(O)c(O)c1)OCCc1ccccc1 [CAPE, Phenethyl caffeate] | no effect |  |
| COc1ccc(/C=C/c2cc(O)cc(O)c2)cc1 [Resveratol 4-methyl ether] | no effect |  |
| COc1cc(OC)c2c(=O)c(-c3ccc4c(c3)OCO4)coc2c1 [Derrustone] | no effect |  |
| CCCC(=O)Nc1ncnc2c1ncn2[C@@H]1O[C@@H]2COP(=O)(O)O[C@H]2[C@H]1OC(=O)CCC [Db-cAMP] |  | increase of Arginase I protein (Arginase I protein [2]; previously shown, Neuron 2002): 3 fold; Arginase I up-regulation (Arginase I protein [2]; shown previously, 2002): up-regulated |
| COc1ccc2c(c1)OCc1c-2oc2cc(OC)ccc12 [Dehydrovariabilin] | most promising |  |
| COC(=O)Nc1nc2ccc(Sc3ccccc3)cc2[nH]1 [Fenbendazole, reference compound] | most promising |  |
| Cc1c(OCC(F)(F)F)ccnc1C[S+]([O-])c1nc2ccccc2[nH]1 (stereo not shown) [Lanzoprazole, Lansoprazole, reference compound] |  | ability to overcome inhibition by MAG (neurite outgrowth) [3]: overcome inhibition by MAG completely; Arginase I protein level (Arginase I protein [4]): up-regulated |
| O=c1c(-c2ccc(O)cc2)coc2cc(O)ccc12 [Daidzein] | no effect | ability to overcome inhibition by MAG (neurite outgrowth) [3]: overcome inhibition by MAG completely; Arginase I protein level (Arginase I protein [4]): up-regulated |
| Oc1cc(O)cc(/C=C/c2ccccc2)c1 [Pinosylvin] | most promising |  |
